Experimental data from patent US8507464B2, “Phosphoramidate alkylator prodrugs” (Threshold Pharmaceuticals, Inc., priority 2005, dated 2013).
Read-outs that look alike come from different tables or passages of the source.

Columns and labels:
[1] = logP (partitioning between octanol and water); type: physicochemical; settings: read-out: logP
Source text: As used herein “LogP” means a measure of lipophilicity of a substance determined based on the partitioning of the substance betwen octanol and water.

[2] = system: PC3 cells; assay: Cell cycle distribution (flow cytometry); type: cell-based, human
Protocol: Cells ([…], PC3 and HT29) were seeded at a density of 1.0×10^6 cells/3 ml medium per 60 mm dish. After 24 h attachment, cells were exposed to Compound 25 at the indicated concentrations for 2 h under either normoxia (air) or anoxia (nitrogen). Cells were washed twice, and incubated for an additional 22 h in fresh medium. Cells were trypsinized, centrifuged, and fixed in 75% ethanol at least for 24 h at −20° C. Cell cycle distribution was determined using Guava Cell Cycle reagent (Guava, Hayward, Calif.) by flow cytometry (Guava, Hayward, Calif.).

[3] = system: HT29 monolayer; assay: Clonogenic survival of monolayer cells (Example 35); type: cell-based; settings: Homo sapiens
[4] = system: HT29 spheroids; assay: Spheroid model, clonogenic survival; type: cell-based; settings: Homo sapiens, HT-29, read-out: IC90 HT29 Spheroid 10% O2
[5] = system: spheroids; assay: Spheroid combination with cisplatin or daunorubicin, clonogenic survival; type: cell-based, human; settings: Homo sapiens, 2 h exposure
Protocol: The phosphoramidate alkylator prodrug was combined simultaneously with cisplatin or daunorubicin and the spreroids exposed for 2 h to the combination, followed by measurement of clonogenic survival.

[6] = system: rat (RLM) liver microsomal proteins; assay: Metabolic stability in liver microsomal protein; type: in vitro ADME; settings: 5 μM
[7] = system: HT29 xenograft; assay: HT-29 xenograft mouse model with CDDP (Example 52); type: in vivo; settings: for % Inhibition vs Group 1 / % Inhibition vs Group 2: tumor volumes at day 25; for % Inhibition vs Group 1: vs vehicle group, regimen per table
Protocol: Female CB17/SCID mice (purchased from Charles River, Cambridge, Mass.), 7-8 weeks of age, were allowed to acclimatize for at least three days, and handled under pathogen-free conditions. Human colon carcinoma cell line HT29 was obtained from the American Type Culture Collection. The cell lines were cultured and harvested as described in Example 47 and inoculated at 3×10^6 cells/animal in the peritoneal subcutaneous space. When the tumors grew to an average volume of 100 mm^3 (day 8), each group of mice (ten per group) was administered, for three weeks, as tabulated in the table below: Compound 25 in saline, administration route—i.p., administrated 2 h before CDDP on the days the combination therapy is scheduled and CDDP (in saline, IV).
The body weight and tumor volume were determined as described in Example 47. Data are based on tumor volumes at day 25 when tumors in the vehicle group had reached sufficient size to require that the mice be sacrificed.

[8] = system: NCI H460 xenograft; assay: H460 xenograft mouse model, 150 mg/kg weekly with CDDP (Example 53); type: in vivo
Protocol: Female CB17/SCID mice (purchased from Charles River, Cambridge, Mass.), 7-8 weeks of age, were allowed to acclimatize for at least three days, and handled under pathogen-free conditions. Human non-small cell lung cell line NCI H460 was obtained from the American Type Culture Collection. The cell lines were cultured and harvested as described in Example 47 and inoculated at 3×10^6 cells/animal in the peritoneal subcutaneous space. When the tumors grew to an average volume of 100 mm^3, treatment was initiated in which groups of 10 mice received vehicle (Group 1), CDDP at 6 mg/kg (IV one time, Group 2), Compound 25 at 150 mg/kg in saline, once a week for two weeks (i.p., Group 3), or the combination of the two agents (Group 4).

[9] = system: AA8; assay: Clonogenic survival - DNA mutant repair cells; settings: Cricetulus griseus
[10] = system: ACHN cells; assay: Antiproliferation assay (Alamar Blue), anoxia vs air; settings: Homo sapiens, 2 h
[11] = system: PC3 cells; assay: as above; settings: Homo sapiens, PC-3, 2 h
[12] = Group 7, Compound 25 i.p. in combination with CDDP IV
[13] = Group 8, Compound 25 i.p. in combination with CDDP IV
[14] = Group 9, Compound 25 i.p. in combination with CDDP IV
[15] = Group 10, Compound 25 i.p. in combination with CDDP IV

Cn1c(COP(=O)(NCCBr)NCCBr)cnc1[N+](=O)[O-] [Compound 25]
logP [1]: < 0 | Cell cycle G0/G1 ([2]; 0.0005 μM, Air): 55 | Cell cycle G2/M ([2]; 0.0005 μM, Air): 32 | Cell cycle S ([2]; 0.0005 μM, Air): 12 | Cell cycle G0/G1 ([2]; 0.0005 μM, Nitrogen): 59 | Cell cycle G2/M ([2]; 0.0005 μM, Nitrogen): 31 | Cell cycle S ([2]; 0.0005 μM, Nitrogen): 10 | Cell cycle G0/G1 ([2]; 0.005 μM, Air): 52 | Cell cycle G2/M ([2]; 0.005 μM, Air): 34 | Cell cycle S ([2]; 0.005 μM, Air): 13 | Cell cycle G0/G1 ([2]; 0.005 μM, Nitrogen): 56 | Cell cycle G2/M ([2]; 0.005 μM, Nitrogen): 32 | Cell cycle S ([2]; 0.005 μM, Nitrogen): 11 | Cell cycle G0/G1 ([2]; 0.05 μM, Air): 55 | Cell cycle G2/M ([2]; 0.05 μM, Air): 33 | Cell cycle S ([2]; 0.05 μM, Air): 12 | Cell cycle G0/G1 ([2]; 0.05 μM, Nitrogen): 43 | Cell cycle G2/M ([2]; 0.05 μM, Nitrogen): 44 | Cell cycle S ([2]; 0.05 μM, Nitrogen): 12 | Cell cycle G0/G1 ([2]; 0.5 μM, Air): 55 | Cell cycle G2/M ([2]; 0.5 μM, Air): 32 | Cell cycle S ([2]; 0.5 μM, Air): 13 | Cell cycle G0/G1 ([2]; 0.5 μM, Nitrogen): 21 | Cell cycle G2/M ([2]; 0.5 μM, Nitrogen): 46 | Cell cycle S ([2]; 0.5 μM, Nitrogen): 33 | Cell cycle G0/G1 ([2]; 5 μM, Air): 55 | Cell cycle G2/M ([2]; 5 μM, Air): 32 | Cell cycle S ([2]; 5 μM, Air): 12 | Cell cycle G0/G1 ([2]; 5 μM, Nitrogen): 35 | Cell cycle G2/M ([2]; 5 μM, Nitrogen): 26 | Cell cycle S ([2]; 5 μM, Nitrogen): 38 | IC90 ([3]; HT-29, read-out: IC90 HT29 Monolayer 0.6% O2): 3000 nM | IC90 ([3]; HT-29, read-out: IC90 HT29 Monolayer Air): 40000 nM | IC90 ([3]; HT-29, read-out: IC90 HT29 Monolayer N2): 200 nM | IC90 [4]: 29 µM | IC50 ([5]; read-out: IC50 (μM), spheroids, cisplatin combination experiment): 12 µM | IC50 ([5]; read-out: IC50 (μM), spheroids, daunorubicin combination experiment): 9 µM | Metabolic stability (% at 30 min) RLM ([6]; Table 1, first study): 84% | Metabolic stability (% at 30 min) RLM ([6]; Table 2A, second study): 137% | % Inhibition vs Group 1 ([7]; Group 3, Compound 25 in saline i.p.): 28.2% | % Inhibition vs Group 1 ([7]; Group 4, Compound 25 in saline i.p.): 30.1% | % Inhibition vs Group 1 ([7]; Group 5, Compound 25 in saline i.p.): 31.3% | % Inhibition vs Group 1 ([7]; Group 6, Compound 25 in saline i.p.): 48.1% | % Inhibition vs Group 2 [7, 12]: 30.8% | % Inhibition vs Group 1 [7, 12]: 50.7% | % Inhibition vs Group 2 [7, 13]: 27.5% | % Inhibition vs Group 1 [7, 13]: 44.2% | % Inhibition vs Group 2 [7, 14]: 21.5% | % Inhibition vs Group 1 [7, 14]: 36.2% | % Inhibition vs Group 2 [7, 15]: 33.2% | % Inhibition vs Group 1 [7, 15]: 51.8% | tumor growth ([7]; monotherapy 50 and 100 mg/kg/day, various regimens, saline): inhibition of tumor growth | body weight ([7]; more so in combination groups, recovered): modest body weight loss | body weight ([8]; 150 mg/kg once a week): Little change in body weight | tumor growth during the two week period of dosing ([8]; 150 mg/kg once a week for two weeks, i.p.): complete inhibition of tumor growth | IC90 ([9]; CHO-AA8, read-out: IC90 AA8 Air): > 300000 nM | IC90 ([9]; CHO-AA8, read-out: IC90 AA8 N2): 850 nM | IC50 ([10]; read-out: IC50 ACHN Air): 62 µM | IC50 ([10]; read-out: IC50 ACHN Anoxia): 0.2 µM | IC50 ([11]; read-out: IC50 PC3 Air): > 100000 nM | IC50 ([11]; read-out: IC50 PC3 Anoxia): 600 nM
